System: rats
Assay: Chronic (10 day) dosing behavioral tests in rats
Settings: for acoustic startle reactivity: 50 mg/kg
Protocol: The effects of chronic dosing of nepicastat in rats were examined. Between three and thirteen days prior to the first dosing day the rats were placed inside the startle apparatus and after a five minute acclimation period they were presented with a 118 dB noise burst on average once a minute (a variable inter-trial interval ranging between 30 and 90 seconds will be used) for 20 minutes. The startle responses were measured and a mean for the last twenty startle response was calculated for each rat.
The following behavioral tests were administered during and after chronic dosing; body core temperature, motor activity, acoustic startle reactivity, and pre-pulse inhibition of acoustic startle.
The animals were tested in an enclosed room with a white noise generator running Motor activity tests were conducted immediately after the body core temperature reading taken on dosing day ten (about 3 hours and 35 minutes after the morning daily dose of nepicastat, and SKF-102698, and 20 minutes prior to the daily administration of clonidine and d-amphetamine on dosing day ten). Motor activity tests were run for one hour. A diagnostic program was run on each of the motor activity chambers prior to each test session to assure that the photo beams and light sensors were operating properly. […] D-amphetamine was used as the positive control for this assay.
Rat body core temperatures were obtained by inserting the rectal probe 2 cm into the colon of each rat. Each rat's body core temperature was measured three times and the average of the three reading was calculated. Body core temperature readings were obtained immediately prior to the ten day chronic dosing schedule (to obtain a baseline), and three and half hour after the morning daily dose of nepicastat, and SKF-102698, and 15 minutes prior to the daily administration of clonidine and d-amphetamine, on dosing days one, five and ten. […] Both clonidine (an alpha2 agonist), and d-amphetamine (a dopamine releaser) were used as the positive controls for this assay.
Acoustic startle reactivity (a series of muscle contractions elicited by an intense burst of noise with a rapid onset), and pre-pulse inhibition (sensorimotor gating measured by analyzing any decrease in startle reactivity which occurs when a startling stimulus is immediately preceded by a non startling stimulus) were both measured in eight SR-Lab (San Diego Instruments, San Diego, Calif.) test stations. The rats were placed individually in a Plexiglas cylinder (10 cm diameter) which was housed in a ventilated sound-attenuating enclosure. Acoustic noise bursts (a broad band noise with a rise time and fall time of 1 msec) were presented via a speaker mounted 30 cm above the animal. Also, these speakers produced a 68 dB level of background noise throughout all test sessions. A piezoelectric accelerometer attached below the plexiglass cylinder transduced the subject's movement into a voltage which was then rectified and digitized (on a scale from 0 to 4095) by a PC computer equipped with SR-Lab software and interface assembly. A decibel meter was used to calibrate the speakers in each of the eight test station to ±1% of the mean. Additionally, a SR-Lab calibrating instrument was used to calibrate each of the eight startle detection apparatuses to ±2% of the mean. Startle reactivity and pre-pulse inhibition tests were run concurrently immediately alter the motor activity test (about 4 hours and 40 minutes after the morning daily injection of nepicastat, and SKF-102698, and 10 minutes after a supplemental administration of clonidine and d-amphetamine on dosing day ten).

Compound	body core temperature (rat, in vivo)	pre-pulse inhibition (rat, in vivo)	acoustic startle reactivity (rat, in vivo)	pre-pulse inhibition (dosing day ten)	locomotor activity vs vehicle (dosing day ten, nepicastat 5, 15, 50, SKF-102698 50 mg/kg bid, clonidine 20 μg/kg, d-amphetamine 2 mg/kg bid)
Cl.NCc1c[nH]c(=S)n1[C@H]1CCc2c(F)cc(F)cc2C1 [nepicastat, (S)-5-Aminomethyl-1-(5,7-difluoro-1,2,3,4-tetrahydronaphth-2-yl)-2,3-dihydro-2-thioxo-1H-imidazole hydrochloride]	unaffected	None of the nepicastat dose groups were significantly different	significantly higher startle response than the SKF-102698		
Fc1cc(F)cc(Cn2cc[nH]c2=S)c1 [SKF-102698, reference compound]		marginally higher percent prepulse inhibition	significantly lower startle response compared to cyclodextrin	Neither d-amphetamine nor SKF-102698 was significantly different	significantly lower locomotor activity
